Where “and” joins values, the source holds several entries; their conditions need not be identical. Equal values may be shown once. Read-outs that look alike come from different tables or passages of the source.
Tested on: Influenza A/Duck/MN/1525/81 (H5N1) virus
Design: species or system BALB/c mice
Details: mouse, in vivo

Row | Structure (SMILES) | mice survived to day 21 | survival rate [%] | mean day of death (MDD) (sodium salt) | mean day of death (MDD)
1 | CC#CCC(C)[C@H](O)/C=C/[C@@H]1[C@H]2c3cccc(CCCC(=O)[O-])c3O[C@H]2C[C@H]1O.[Na+] (mixture of isomers) [beraprost, (+)-[1R,2R,3aS,8bS]-2,3,3a,8b-tetrahydro-2-hydroxyl-1-[(E)-(3S,4RS)-3-hydroxyl-4-methyl-1-octen-6-ynyl)-1H-cyclopenta[b]benzofuran-5-butanoic acid, sodium salt] | 6 of 10 | 50 | 9.0 ± 3.9 days and 8.0 ± 2.0 days | –
2 | CCOC(=O)C1=C[C@@H](OC(CC)CC)[C@H](NC(C)=O)[C@@H](N)C1 [oseltamivir] | 8 out of 10 | 70 | – | 9.0 ± 0.0 days and 11.4 ± 1.8 days

Reference: US20150196578A1, “COMBINATION THERAPY TREATMENT FOR VIRAL INFECTIONS” (priority 2009, published 2015)
